Key:
β-glucosidase = experiment: Enzymatic cleavage study (HPLC) with β-glucosidase; format: biochemical, almonds; conditions: for Release of 1 (HPLC): 100 μM prodrug in PBS, 2 units β-glucosidase, 37°C
Experimental: (§1) To test the desired, selective enzymatic cleavage and further evaluate compound stability, solutions of each prodrug were prepared in phosphate-buffered saline (PBS), and either β-galactosidase or β-glucosidase were added. After incubation times of 24 h and 48 h, samples from each mixture were analyzed by HPLC to gain insight into the relative amounts of both the remaining prodrug and the liberated 1.
(§2) Fig. 3 HPLC traces after 48 h of enzyme incubation for the prodrugs of this study as indicated at their respective peaks. The identity of the employed enzyme is indicated on the left of the chromatogram and the identity of each observed compound is shown above the respective peak. Chromatograms are shown with an offset of 2 along the ordinate to facilitate comparison.
(§3) The three following enzymes were employed in this study:
(§4) (1) esterase from porcine liver sourced from Sigma Aldrich as dry powder with an activity of 229.4 units/mg protein as indicated by the supplier for the received lot; (2) β-glucosidase from almonds sourced from Sigma Aldrich as dry powder with an activity of 11.7 U/mg as indicated by the supplier for the received lot
(§5) (3) β-galactosidase from e.coli overproducer sourced from Roche as prepared aqueous solution with an activity of 1500 units/mL protein as indicated by the supplier for the […]
(§6) As indicated for each experiment below, the respective enzyme was dissolved in PBS buffer and diluted as appropriate to produce the desired concentration.
25 mM stock solutions in DMSO were prepared for 2a, 2b, 3a, and 3b. […]
[…] The vials were then assigned to one of three experimental groups: control, negative, and positive.
In the control group, no enzyme was introduced. […]
All vials were incubated in a 37°C water bath for 48 hours. Aliquots were extracted from each vial after 24 and 48 hours, respectively, and analyzed as described below.
(§7) The extracted aliquots were analyzed via high-performance liquid chromatography (HPLC) with ultraviolet (UV) detection at a wavelength of 254 nm. Chromatograms were plotted with an offset of 1 along the y-axis to allow clear intercomparison of the data across the […]

[1] = Stability in PBS without enzyme (HPLC control group); format: physicochemical; conditions: 100 μM in PBS, no enzyme, 37°C, up to 48 h
Experimental: Additional selectivity control experiments were conducted, in which either no enzyme or an “incorrect” enzyme such as an esterase was used (see Fig. S13–S24 in the ESI ^†).
as §3, §4, §5, §6
25 mM stock solutions in DMSO were prepared for 2a, 2b, 3a, and 3b. From these stock solutions, 4 µL was added to 1 mL of PBS buffer, respectively, in separate glass vials, achieving a final concentration of 100 µM. […]
In the control group, no enzyme was introduced. […] Aliquots were extracted from each vial after 24 and 48 hours, respectively, and analyzed as described below.
The extracted aliquots were analyzed via high-performance liquid chromatography (HPLC) with ultraviolet (UV) detection at a wavelength of 254 nm. […]

β-galactosidase [2] = biological target: T1, β-galactosidase (Escherichia coli, UniProt P00722); experiment: Enzymatic cleavage study (HPLC) with β-galactosidase; format: biochemical, e.coli; conditions: 100 μM prodrug in PBS, 2 units β-galactosidase, 37°C
T1 construct: purchased Roche; host or cells: E. coli overproducer
Experimental: as §1, §2, §3, §4, §5, §6
25 mM stock solutions in DMSO were prepared for 2a, 2b, 3a, and 3b. From these stock solutions, 4 µL was added to 1 mL of PBS buffer, respectively, in separate glass vials, achieving a final concentration of 100 µM. The vials were then assigned to one of three experimental groups: control, negative, and positive.
In the control group, no enzyme was introduced. The negative group received 2 units of esterase enzyme, while the positive group received 2 units of the target enzyme as indicated, either β-galactosidase or β-glucosidase. All vials were incubated in a 37°C water bath for 48 hours. Aliquots were extracted from each vial after 24 and 48 hours, respectively, and analyzed as described below.
as §7

β-galactosidase [3] = biological target: T1, β-galactosidase; experiment: AIE fluorescence study of release of 1 with β-galactosidase; format: biochemical, e.coli; conditions: for Relative emission intensity at 480 nm: 20 μM in water; for Fluorescence emission / release of 1 (in words): water, three enzyme units of β-galactosidase, 0 h and 24 h
Experimental: The AIE fluorescence properties of 1 were used as a means of supporting the above conclusion. The emission of all glycosylated prodrugs is suppressed. Thus, solutions of each prodrug were prepared in water, and three enzyme units of β-galactosidase or β-glucosidase, as appropriate, were added to the prodrugs. Each mixture was then analysed by fluorescence spectroscopy after 24 h of incubation. […] This finding is consistent with a lack of enzymatic activation.
Fig. 4 Relative emission intensity at 480 nm (*for 3b at 420 nm) of evaluated compounds at 20 μM before and after incubation with 3 U of the appropriate enzyme. TEXT PRINTED IN THE PICTURE: 1: Relative Emission 480 nm: 100% (Before incubation); Relative Emission 480 nm: 100% (After 24 h incubation) | 2a: Relative Emission 480 nm: 0% (Before incubation); Relative Emission 480 nm: 0% (After 24 h incubation) | 2b: Relative Emission 480 nm: 0% (Before incubation); Relative Emission 480 nm: 1% (After 24 h incubation) | 3a: Relative Emission 480 nm: 1% (Before incubation); Relative Emission 480 nm: 33% (After 24 h incubation) | 3b*: Relative Emission 480 nm: 1% (Before incubation); Relative Emission 480 nm: 11% (After 24 h incubation) […]
Figure S25: Fluorescence spectra for excitation (blue) and emission (green) of 1 at a concentration of 20 μM in water.
Figure S26: Fluorescence spectra for excitation (blue) and emission (green) of 2a at a concentration of 20 μM in water before (left) and after (right) incubation with 3 units of b-galactosidase for 24 h. […]
Figure S28: Fluorescence spectra for excitation (blue) and emission (green) of 3a at a concentration of 20 μM in water before (left) and after (right) incubation with 3 units of β-galactosidase for 24 h. […]

[4] = after 24 h incubation with 3 U β-galactosidase
[5] = before incubation with 3 U β-galactosidase

T1 sequence (P00722 2-1024): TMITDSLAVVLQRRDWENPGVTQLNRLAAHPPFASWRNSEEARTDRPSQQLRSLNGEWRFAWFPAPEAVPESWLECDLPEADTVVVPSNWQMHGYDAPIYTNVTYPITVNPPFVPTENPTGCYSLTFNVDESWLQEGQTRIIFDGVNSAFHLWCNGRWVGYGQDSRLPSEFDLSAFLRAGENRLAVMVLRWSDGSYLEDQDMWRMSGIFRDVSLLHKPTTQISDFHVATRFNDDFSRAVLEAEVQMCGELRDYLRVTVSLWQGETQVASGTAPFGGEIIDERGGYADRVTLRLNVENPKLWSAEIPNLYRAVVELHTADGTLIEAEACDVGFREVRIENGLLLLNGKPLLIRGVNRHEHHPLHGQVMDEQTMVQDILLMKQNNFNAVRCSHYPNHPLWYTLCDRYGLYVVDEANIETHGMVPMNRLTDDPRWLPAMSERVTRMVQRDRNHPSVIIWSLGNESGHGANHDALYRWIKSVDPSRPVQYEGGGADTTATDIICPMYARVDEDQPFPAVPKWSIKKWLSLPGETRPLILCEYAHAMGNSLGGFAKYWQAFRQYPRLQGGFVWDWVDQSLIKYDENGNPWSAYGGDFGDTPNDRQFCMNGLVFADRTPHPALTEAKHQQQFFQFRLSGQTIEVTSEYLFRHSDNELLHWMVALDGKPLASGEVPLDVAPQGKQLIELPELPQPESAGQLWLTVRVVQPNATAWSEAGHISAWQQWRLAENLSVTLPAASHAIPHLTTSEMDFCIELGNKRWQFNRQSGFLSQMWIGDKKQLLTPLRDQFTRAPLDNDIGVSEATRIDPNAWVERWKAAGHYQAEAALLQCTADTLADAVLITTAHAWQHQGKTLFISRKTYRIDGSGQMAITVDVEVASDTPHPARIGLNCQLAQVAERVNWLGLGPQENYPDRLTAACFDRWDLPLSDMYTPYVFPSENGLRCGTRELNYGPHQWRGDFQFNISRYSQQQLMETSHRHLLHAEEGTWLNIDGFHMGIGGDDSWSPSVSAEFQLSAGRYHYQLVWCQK

Row | SMILES | Release of 1 (HPLC) (β-glucosidase; 24 h) | Release of 1 (HPLC) (β-glucosidase; 48 h) | Stability in PBS / aqueous media [1] | Release of 1 (HPLC) (β-galactosidase [2]; 24 h) | Release of 1 (HPLC) (β-galactosidase [2]; 48 h) | Relative emission intensity at 480 nm (β-galactosidase [3]; [4]) | Relative emission intensity at 480 nm (β-galactosidase [3]; [5]) | Fluorescence emission / release of 1 (in words) (β-galactosidase [3]) | Cleavage of 1 from prodrug (HPLC of the fluorescence sample) (β-glucosidase; 20 μM in water, 3 enzyme units of β-glucosidase, 24 h)
1 | OC[C@H]1OC(Oc2ccccc2-c2nc(-c3ccccc3O)nn2-c2ccccc2)[C@H](O)[C@@H](O)[C@@H]1O (some centres unmarked) [2b] | no release of 1 was observed | no release of 1 was observed | good stability in aqueous media |  |  |  |  |  | 
2 | OC[C@H]1OC(Oc2ccccc2-c2nc(-c3ccccc3O)nn2-c2ccccc2)[C@H](O)[C@@H](O)[C@H]1O (some centres unmarked) [2a] |  |  | good stability in aqueous media | no release of 1 was observed | no release of 1 was observed | 0% | 0% | no fluorescence emission was observed | 
3 | OC[C@H]1OC(Oc2ccc(COc3ccccc3-c3nc(-c4ccccc4O)nn3-c3ccccc3)cc2)[C@H](O)[C@@H](O)[C@@H]1O (some centres unmarked) [3b] | significant release of 1 | further increased |  |  |  |  |  |  | successful cleavage
4 | OC[C@H]1OC(Oc2ccc(COc3ccccc3-c3nc(-c4ccccc4O)nn3-c3ccccc3)cc2)[C@H](O)[C@@H](O)[C@H]1O (some centres unmarked) [3a] |  |  |  | significant release of 1 | further increased | 33% | 1% | readily discernible release of 1 | 

Reference: publication PMC12177571, “Glycosidase-activated prodrugs of a cytotoxic iron chelator for targeted cancer therapy” (RSC Medicinal Chemistry, 2025)
